Each structure is given as a SMILES string.

This assay addresses T1, Cps3D (Actinobacillus pleuropneumoniae, UniProt A0A2S0ETM3).
T1 construct: MBP-Cps3D-His6 (177 kDa), full-length, tags kept, expressed in E. coli M15[pREP4]
As to the kind of experiment: HPLC-AEC of donor consumption, PAGE and NMR of polymer. To be noted: 20 mM Tris pH 8.0, 10 mM MgCl2, 1 mM DTT, 37 °C; no primer; with UDP-Gal. The class given is biochemical.

T1 sequence (A0A2S0ETM3 entry or part of it): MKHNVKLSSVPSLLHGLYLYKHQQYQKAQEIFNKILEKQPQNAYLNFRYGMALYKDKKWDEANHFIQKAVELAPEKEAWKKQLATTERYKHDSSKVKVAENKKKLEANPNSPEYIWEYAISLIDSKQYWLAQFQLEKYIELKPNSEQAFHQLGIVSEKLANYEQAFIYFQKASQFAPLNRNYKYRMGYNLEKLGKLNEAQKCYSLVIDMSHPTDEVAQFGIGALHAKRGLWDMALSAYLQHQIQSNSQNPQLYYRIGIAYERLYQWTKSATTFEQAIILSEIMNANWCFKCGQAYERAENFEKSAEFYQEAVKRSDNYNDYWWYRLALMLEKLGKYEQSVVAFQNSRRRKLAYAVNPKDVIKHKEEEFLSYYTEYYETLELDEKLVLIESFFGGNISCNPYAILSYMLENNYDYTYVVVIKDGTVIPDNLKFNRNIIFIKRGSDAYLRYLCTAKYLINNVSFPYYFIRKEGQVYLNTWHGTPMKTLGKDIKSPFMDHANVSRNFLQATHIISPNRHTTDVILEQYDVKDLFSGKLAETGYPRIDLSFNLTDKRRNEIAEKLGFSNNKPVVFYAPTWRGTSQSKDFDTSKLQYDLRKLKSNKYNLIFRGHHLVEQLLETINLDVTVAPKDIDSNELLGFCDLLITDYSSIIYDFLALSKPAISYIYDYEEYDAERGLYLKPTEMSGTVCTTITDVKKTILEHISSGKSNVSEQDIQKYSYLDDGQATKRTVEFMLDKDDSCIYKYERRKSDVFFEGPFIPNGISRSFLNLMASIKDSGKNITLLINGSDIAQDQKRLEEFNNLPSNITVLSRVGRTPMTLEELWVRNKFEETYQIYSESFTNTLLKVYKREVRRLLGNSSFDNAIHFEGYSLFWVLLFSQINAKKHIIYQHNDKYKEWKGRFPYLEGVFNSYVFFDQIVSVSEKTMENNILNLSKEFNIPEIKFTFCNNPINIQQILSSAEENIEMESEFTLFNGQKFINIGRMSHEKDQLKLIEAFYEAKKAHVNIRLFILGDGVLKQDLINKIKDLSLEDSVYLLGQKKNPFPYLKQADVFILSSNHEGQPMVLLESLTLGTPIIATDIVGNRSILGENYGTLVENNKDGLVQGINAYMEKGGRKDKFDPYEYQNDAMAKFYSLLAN

For `Nc1ccn([C@@H]2O[C@H](COP(=O)(O)OP(=O)(O)OC[C@H](O)CO)[C@@H](O)[C@H]2O)c(=O)n1` (racemic) [CDP-glycerol], the “HPLC-AEC of donor consumption, PAGE and NMR of polymer” value is “both enantiomers are substrates for the enzymes as shown by the complete consumption of CDP-glycerol”.

The record behind these values is publication PMC5974469, “A New Family of Capsule Polymerases Generates Teichoic Acid-Like Capsule Polymers in Gram-Negative Pathogens” (mBio, 2018).
